Read-outs that look alike come from different tables or passages of the source.
Legend:
EGFR wildtype (WT) = EGFR wildtype (WT) (Homo sapiens, UniProt P00533); assay: Biochemical EGFR kinase inhibition assay (Lance Ultra TR-FRET), wildtype
Method in brief: (§1)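 Kinase activity is measured by TR-FRET phosphopeptide detection. Compounds span 0.003 μM to 10 μM; the 1 h reaction at room temperature is quenched with EDTA, then labelled antibody (2 nM) is incubated 60 min before reading.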

EGFR Del19/C797S = EGFR Del19/C797S (Homo sapiens, UniProt P00533, C797S/DEL746-750); assay: Biochemical EGFR kinase inhibition assay (Lance Ultra TR-FRET), double mutant del19/C797S
Method in brief: as §1

EGFR Del19/T790M/C797S = EGFR Del19/T790M/C797S (Homo sapiens, UniProt P00533, C797S/DEL746-750/T790M); assay: Biochemical EGFR kinase inhibition assay (Lance Ultra TR-FRET), triple mutant del19/T790M/C797S
Method in brief: as §1

EGFR L858R/T790M/C797S = EGFR L858R/T790M/C797S (Homo sapiens, UniProt P00533, C797S/L858R/T790M); assay: Biochemical EGFR kinase inhibition assay (Lance Ultra TR-FRET), triple mutant L858R/T790M/C797S
Method in brief: as §1

EGFR L858R/C797S = EGFR L858R/C797S (Homo sapiens, UniProt P00533, C797S/L858R); assay: Biochemical EGFR kinase inhibition assay (Lance Ultra TR-FRET), double mutant L858R/C797S
Method in brief: as §1

[1] = IC50 Del19/C797S (nM), 100 μM ATP
[2] = IC50 Del19/T790M/C797S (nM), 100 μM ATP
[3] = IC50 L858R/T790M/C797S (nM), 100 μM ATP
[4] = IC50 L858R/C797S (nM), 100 μM ATP
[5] = Km ATP, read-out: IC50 L858R/C797S (nM) Km ATP
[6] = Km ATP, read-out: IC50 WT (nM) Km ATP
[7] = Km ATP, read-out: IC50 Del19/C797S (nM) Km ATP
[8] = Km ATP, read-out: IC50 Del19/T790M/C797S (nM) Km ATP
[9] = Km ATP, read-out: IC50 L858R/T790M/C797S (nM) Km ATP

EGFR Del19/T790M/C797S, sequence (P00533 with tags, fused parts or gaps DEL746-750/T790M/C797S): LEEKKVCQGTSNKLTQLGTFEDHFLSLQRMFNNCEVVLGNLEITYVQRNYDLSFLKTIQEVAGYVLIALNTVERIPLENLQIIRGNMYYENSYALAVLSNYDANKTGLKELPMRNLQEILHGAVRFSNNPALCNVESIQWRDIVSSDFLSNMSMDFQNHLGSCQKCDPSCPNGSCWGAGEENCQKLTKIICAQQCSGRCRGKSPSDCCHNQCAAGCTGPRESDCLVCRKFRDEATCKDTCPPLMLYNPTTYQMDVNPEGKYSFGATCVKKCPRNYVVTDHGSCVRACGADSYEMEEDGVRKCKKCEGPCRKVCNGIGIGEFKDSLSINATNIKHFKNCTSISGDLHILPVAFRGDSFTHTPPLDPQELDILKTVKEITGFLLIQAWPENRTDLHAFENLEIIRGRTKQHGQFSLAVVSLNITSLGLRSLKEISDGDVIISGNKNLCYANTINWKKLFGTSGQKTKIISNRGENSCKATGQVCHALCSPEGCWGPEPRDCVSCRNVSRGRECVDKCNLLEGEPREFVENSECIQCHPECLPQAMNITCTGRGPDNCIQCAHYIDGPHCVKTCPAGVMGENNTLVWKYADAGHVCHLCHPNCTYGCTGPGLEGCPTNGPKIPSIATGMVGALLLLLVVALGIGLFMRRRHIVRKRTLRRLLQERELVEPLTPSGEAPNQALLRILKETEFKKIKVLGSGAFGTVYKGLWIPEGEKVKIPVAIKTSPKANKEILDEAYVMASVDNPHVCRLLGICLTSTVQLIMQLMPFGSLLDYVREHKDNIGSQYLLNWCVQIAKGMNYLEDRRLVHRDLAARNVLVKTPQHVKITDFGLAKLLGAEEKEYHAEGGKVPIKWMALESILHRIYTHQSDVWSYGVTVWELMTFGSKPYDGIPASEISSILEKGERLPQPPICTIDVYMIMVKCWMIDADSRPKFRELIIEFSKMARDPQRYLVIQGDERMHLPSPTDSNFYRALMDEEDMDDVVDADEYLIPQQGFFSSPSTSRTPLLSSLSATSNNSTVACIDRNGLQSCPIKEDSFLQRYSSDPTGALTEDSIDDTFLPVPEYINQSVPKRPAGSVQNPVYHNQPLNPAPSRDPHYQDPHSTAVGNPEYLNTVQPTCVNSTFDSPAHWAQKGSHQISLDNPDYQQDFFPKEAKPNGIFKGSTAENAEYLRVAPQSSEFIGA
EGFR Del19/C797S, sequence (P00533 with tags, fused parts or gaps DEL746-750/C797S): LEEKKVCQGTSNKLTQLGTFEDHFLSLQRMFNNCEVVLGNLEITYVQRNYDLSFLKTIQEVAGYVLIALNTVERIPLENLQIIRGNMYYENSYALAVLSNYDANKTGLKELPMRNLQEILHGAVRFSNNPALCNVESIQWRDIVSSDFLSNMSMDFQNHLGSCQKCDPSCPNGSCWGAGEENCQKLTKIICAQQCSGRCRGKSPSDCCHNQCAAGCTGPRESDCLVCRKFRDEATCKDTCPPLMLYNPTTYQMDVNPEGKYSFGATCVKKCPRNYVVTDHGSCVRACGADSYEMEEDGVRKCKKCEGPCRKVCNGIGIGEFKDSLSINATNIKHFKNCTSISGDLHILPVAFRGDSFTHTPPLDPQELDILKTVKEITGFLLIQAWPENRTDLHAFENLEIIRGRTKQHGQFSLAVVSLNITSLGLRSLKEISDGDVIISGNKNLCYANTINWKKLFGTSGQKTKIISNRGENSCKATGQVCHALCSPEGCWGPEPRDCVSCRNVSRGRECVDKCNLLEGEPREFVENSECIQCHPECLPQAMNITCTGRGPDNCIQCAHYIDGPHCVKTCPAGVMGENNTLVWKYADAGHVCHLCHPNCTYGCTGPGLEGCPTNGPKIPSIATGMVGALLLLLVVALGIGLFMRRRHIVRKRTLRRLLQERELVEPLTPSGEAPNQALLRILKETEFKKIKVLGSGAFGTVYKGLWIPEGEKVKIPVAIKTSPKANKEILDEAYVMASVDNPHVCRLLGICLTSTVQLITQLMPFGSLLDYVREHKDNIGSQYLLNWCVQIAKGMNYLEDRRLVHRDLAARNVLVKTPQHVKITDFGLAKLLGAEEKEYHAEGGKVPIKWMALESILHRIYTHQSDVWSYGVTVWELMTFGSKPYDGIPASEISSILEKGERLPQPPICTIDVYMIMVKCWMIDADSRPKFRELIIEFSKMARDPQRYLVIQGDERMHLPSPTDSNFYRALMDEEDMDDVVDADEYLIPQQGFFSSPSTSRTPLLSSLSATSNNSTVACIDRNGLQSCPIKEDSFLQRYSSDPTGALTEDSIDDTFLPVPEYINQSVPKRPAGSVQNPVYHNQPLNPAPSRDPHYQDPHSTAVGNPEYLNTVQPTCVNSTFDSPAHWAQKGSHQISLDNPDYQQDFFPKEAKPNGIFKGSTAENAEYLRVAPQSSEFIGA
EGFR wildtype (WT), sequence (P00533 25-1210): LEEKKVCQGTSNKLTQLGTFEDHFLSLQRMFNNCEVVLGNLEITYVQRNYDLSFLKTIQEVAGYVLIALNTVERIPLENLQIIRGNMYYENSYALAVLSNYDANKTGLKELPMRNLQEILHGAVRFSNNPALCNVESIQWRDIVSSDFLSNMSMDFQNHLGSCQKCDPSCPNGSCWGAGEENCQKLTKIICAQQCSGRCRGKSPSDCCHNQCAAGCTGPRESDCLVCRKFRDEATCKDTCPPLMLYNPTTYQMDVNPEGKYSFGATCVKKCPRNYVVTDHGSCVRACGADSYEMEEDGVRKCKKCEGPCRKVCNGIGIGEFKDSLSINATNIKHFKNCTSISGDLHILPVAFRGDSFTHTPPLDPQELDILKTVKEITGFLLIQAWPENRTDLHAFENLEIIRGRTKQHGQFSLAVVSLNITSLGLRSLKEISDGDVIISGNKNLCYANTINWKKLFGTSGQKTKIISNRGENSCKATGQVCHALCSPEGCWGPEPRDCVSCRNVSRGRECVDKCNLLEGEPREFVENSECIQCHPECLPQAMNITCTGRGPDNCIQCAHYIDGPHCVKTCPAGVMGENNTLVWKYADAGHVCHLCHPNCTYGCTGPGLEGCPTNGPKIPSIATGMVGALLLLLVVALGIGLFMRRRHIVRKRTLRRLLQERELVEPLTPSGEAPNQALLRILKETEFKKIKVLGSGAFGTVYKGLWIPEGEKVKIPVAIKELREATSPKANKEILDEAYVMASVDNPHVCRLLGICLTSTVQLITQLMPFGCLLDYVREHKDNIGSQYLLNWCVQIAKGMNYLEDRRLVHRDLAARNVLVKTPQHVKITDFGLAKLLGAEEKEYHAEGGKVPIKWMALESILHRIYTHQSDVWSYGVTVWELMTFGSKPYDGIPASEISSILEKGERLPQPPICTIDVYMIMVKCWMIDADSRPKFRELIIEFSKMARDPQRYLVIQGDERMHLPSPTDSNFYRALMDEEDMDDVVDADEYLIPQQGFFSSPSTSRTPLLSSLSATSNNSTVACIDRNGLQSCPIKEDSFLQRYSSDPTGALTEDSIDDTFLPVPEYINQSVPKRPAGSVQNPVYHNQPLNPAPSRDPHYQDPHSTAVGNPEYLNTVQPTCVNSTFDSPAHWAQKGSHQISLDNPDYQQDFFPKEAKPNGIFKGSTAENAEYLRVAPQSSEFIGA
EGFR L858R/C797S, sequence (P00533 25-1210 C797S/L858R): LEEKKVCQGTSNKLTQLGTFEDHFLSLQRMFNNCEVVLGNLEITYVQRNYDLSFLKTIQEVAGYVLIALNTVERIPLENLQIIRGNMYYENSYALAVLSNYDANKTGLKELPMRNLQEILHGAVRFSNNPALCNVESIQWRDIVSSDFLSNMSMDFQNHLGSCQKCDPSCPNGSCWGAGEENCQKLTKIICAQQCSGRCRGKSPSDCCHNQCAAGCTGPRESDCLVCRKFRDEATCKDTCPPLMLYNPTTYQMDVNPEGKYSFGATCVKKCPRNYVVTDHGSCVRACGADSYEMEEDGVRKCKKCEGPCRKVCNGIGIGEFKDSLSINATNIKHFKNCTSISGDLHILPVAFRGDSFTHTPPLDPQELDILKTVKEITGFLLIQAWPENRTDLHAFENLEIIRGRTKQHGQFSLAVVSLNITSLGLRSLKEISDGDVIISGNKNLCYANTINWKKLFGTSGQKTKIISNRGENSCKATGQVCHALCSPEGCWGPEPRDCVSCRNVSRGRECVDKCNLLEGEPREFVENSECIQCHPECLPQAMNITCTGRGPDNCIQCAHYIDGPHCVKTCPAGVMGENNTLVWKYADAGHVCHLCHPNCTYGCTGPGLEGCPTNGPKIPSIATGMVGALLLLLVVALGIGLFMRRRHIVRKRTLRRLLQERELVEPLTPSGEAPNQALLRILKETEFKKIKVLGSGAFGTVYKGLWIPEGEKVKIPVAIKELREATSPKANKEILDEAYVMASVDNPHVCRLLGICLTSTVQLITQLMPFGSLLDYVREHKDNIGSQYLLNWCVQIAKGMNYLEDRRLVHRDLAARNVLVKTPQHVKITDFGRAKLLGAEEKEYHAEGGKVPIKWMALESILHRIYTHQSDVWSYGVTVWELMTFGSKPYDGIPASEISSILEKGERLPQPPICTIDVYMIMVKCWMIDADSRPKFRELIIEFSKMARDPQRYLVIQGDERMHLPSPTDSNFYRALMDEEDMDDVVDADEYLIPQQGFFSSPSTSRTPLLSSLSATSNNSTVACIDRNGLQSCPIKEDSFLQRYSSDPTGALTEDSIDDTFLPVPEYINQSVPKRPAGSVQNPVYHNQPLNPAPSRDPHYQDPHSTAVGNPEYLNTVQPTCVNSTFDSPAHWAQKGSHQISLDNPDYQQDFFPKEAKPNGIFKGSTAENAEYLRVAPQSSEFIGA

SMILES	IC50 (EGFR wildtype (WT); IC50 WT (nM), 100 μM ATP) [nM]	IC50 (EGFR Del19/C797S; [1]) [nM]	IC50 (EGFR Del19/T790M/C797S; [2]) [nM]	IC50 (EGFR L858R/T790M/C797S; [3]) [nM]	IC50 (EGFR L858R/C797S; [4]) [nM]	IC50 (EGFR L858R/C797S; [5]) [nM]	IC50 (EGFR wildtype (WT); [6]) [nM]	IC50 (EGFR Del19/C797S; [7]) [nM]	IC50 (EGFR Del19/T790M/C797S; [8]) [nM]	IC50 (EGFR L858R/T790M/C797S; [9]) [nM]
Cn1cc(C#Cc2cnc(Nc3ccnc(-c4cnn(S(=O)(=O)C5CC5)c4)n3)cc2NCC(C)(C)CO)cn1 [Example 39, 3-((2-((2-(1-Cyclopropylsulfonylpyrazol-4-yl)pyrimidin-4-yl)amino)-5-(2-(1-methylpyrazol-4-yl)ethynyl)-4-pyridyl)amino)-2,2-dimethyl-propan-1-ol]	> 10000	53.6	2.6	8.8	203	32.3				
CC(C)(CO)CNc1cc(Nc2ccnc(-c3cnn(S(=O)(=O)C4CC4)c3)n2)ncc1C#Cc1cnn(CCF)c1 [Example 40, 3-((2-((2-(1-Cyclopropylsulfonylpyrazol-4-yl)pyrimidin-4-yl)amino)-5-(2-(1-(2-fluoroethyl)pyrazol-4-yl)ethynyl)-4-pyridyl)amino)-2,2-dimethyl-propan-1-ol]	> 10000	49.1	4.8	13.1	278					
Cn1cc(C#Cc2cnc(Nc3ccnc(-c4cnn(S(=O)(=O)C5CC5)c4)n3)cc2N[C@H]2CC[C@@H](O)CC2)cn1 [Example 41, (1s, 4s)-4-((2-((2-(1-(Cyclopropylsulfonyl)-1H-pyrazol-4-yl)pyrimidin-4-yl)amino)-5-((1-methyl-1H-pyrazol-4-yl)ethynyl)pyridin-4-yl)amino)cyclohexan-1-ol]	> 10000	2.8	0.6	0.8	10	1.5	23.8	1.3	0.5	0.2
O=S(=O)(C1CC1)n1cc(-c2nccc(Nc3cc(N[C@H]4CC[C@@H](O)CC4)c(C#Cc4cnn(CCF)c4)cn3)n2)cn1 [Example 42, (1s,4s)-4-((2-((2-(1-(Cyclopropylsulfonyl)-1H-pyrazol-4-yl)pyrimidin-4-yl)amino)-5-((1-(2-fluoroethyl)-1H-pyrazol-4-yl)ethynyl)pyridin-4-yl)amino)cyclohexan-1-ol]	> 10000	3.2	1.1	1.2	11.5					
Cn1cc(C#Cc2cnc(Nc3ccnc(-c4cnn(S(=O)(=O)C5CC5)c4)n3)cc2N[C@H]2CCC[C@H](O)C2)cn1 [Example 43, (1 S,3S)-3-((2-((2-(1-(Cyclopropylsulfonyl)-1H-pyrazol-4-yl)pyrimidin-4-yl)amino)-5-((1-methyl-1H-pyrazol-4-yl)ethynyl)pyridin-4-yl)amino)cyclohexan-1-ol]	> 10000	1.7	0.6	0.7	8.9	1.1	20.3	1.4	0.5	0.2
O=S(=O)(C1CC1)n1cc(-c2nccc(Nc3cc(N[C@H]4CCC[C@H](O)C4)c(C#Cc4cnn(CCF)c4)cn3)n2)cn1 [Example 44, (1S,3S)-3-((2-((2-(1-(Cyclopropylsulfonyl)-1H-pyrazol-4-yl)pyrimidin-4-yl)amino)-5-((1-(2-fluoroethyl)-1H-pyrazol-4-yl)ethynyl)pyridin-4-yl)amino)cyclohexan-1-ol]	2310	2.6	1.2	1.4	12.7					
Cn1cc(C#Cc2cnc(Nc3ccnc(-c4cnn(S(=O)(=O)C5CC5)c4)n3)cc2N[C@@H]2CCC[C@H](O)C2)cn1 [Example 45, (1 S,3R)-3-((2-((2-(1-(Cyclopropylsulfonyl)-1H-pyrazol-4-yl)pyrimidin-4-yl)amino)-5-((1-methyl-1H-pyrazol-4-yl)ethynyl)pyridin-4-yl)amino)cyclohexan-1-ol]	> 10000	7.3	0.9	2.3	46.2					
O=S(=O)(C1CC1)n1cc(-c2nccc(Nc3cc(N[C@@H]4CCC[C@H](O)C4)c(C#Cc4cnn(CCF)c4)cn3)n2)cn1 [Example 46, (1S,3R)-3-((2-((2-(1-(Cyclopropylsulfonyl)-1H-pyrazol-4-yl)pyrimidin-4-yl)amino)-5-((1-(2-fluoroethyl)-1H-pyrazol-4-yl)ethynyl)pyridin-4-yl)amino)cyclohexan-1-ol]	> 10000	8.6	1.3	2.9	59.3					
CC1(CO)CCN(c2cc(Nc3ccnc(-c4cnn(S(=O)(=O)C5CC5)c4)n3)ncc2C#Cc2cnn(C3CC3)c2)CC1 [Example 47, (1-(5-((1-Cyclopropyl-1H-pyrazol-4-yl)ethynyl)-2-((2-(1-(cyclopropylsulfonyl)-1H-pyrazol-4-yl)pyrimidin-4-yl)amino)pyridin-4-yl)-4-methylpiperidin-4-yl)methanol]	1740	1.6	2.8	3.5	7.8	3.3	19.6	2.6	2.1	1.4
CC1(CO)CCN(c2cc(Nc3ccnc(-c4cnn(S(=O)(=O)C5CC5)c4)n3)ncc2C#Cc2cnn(CC3CC3)c2)CC1 [Example 48, (1-(5-((1-(Cyclopropylmethyl)-1H-pyrazol-4-yl)ethynyl)-2-((2-(1-(cyclopropylsulfonyl)-1H-pyrazol-4-yl)pyrimidin-4-yl)amino)pyridin-4-yl)-4-methylpiperidin-4-yl)methanol]	2910	2.2	5.3	9.1	15.9	7.2	38.2	4.3	4	2.3
CN(C)C[C@H]1CC[C@H](CNc2cc(Nc3ccnc(-c4cnn(S(=O)(=O)C5CC5)c4)n3)ncc2C#Cc2cnn(C)c2)CC1 [Example 53, N^2-(2-(1-(Cyclopropylsulfonyl)-1H-pyrazol-4-yl)pyrimidin-4-yl)-N^4-(((1r,4r)-4-((dimethylamino)methyl)cyclohexyl)methyl)-5-((1-methyl-1H-pyrazol-4-yl)ethynyl)pyridine-2,4-diamine]						141	142	5.9	0.4	0.3

The remaining lines, values ahead:

IC50 (EGFR wildtype (WT); IC50 WT (nM), 100 μM ATP) [nM]	IC50 (EGFR Del19/C797S; [1]) [nM]	IC50 (EGFR Del19/T790M/C797S; [2]) [nM]	IC50 (EGFR L858R/T790M/C797S; [3]) [nM]	IC50 (EGFR L858R/C797S; [4]) [nM]	IC50 (EGFR L858R/C797S; [5]) [nM]	IC50 (EGFR wildtype (WT); [6]) [nM]	IC50 (EGFR Del19/C797S; [7]) [nM]	IC50 (EGFR Del19/T790M/C797S; [8]) [nM]	IC50 (EGFR L858R/T790M/C797S; [9]) [nM]	SMILES
1260	0.9	1.8	2.9	7.2	2.8	14.3	2.1	1.8	1.1	CC1(CO)CCN(c2cc(Nc3ccnc(-c4cnn(S(=O)(=O)C5CC5)c4)n3)ncc2C#Cc2cnn(CC(F)F)c2)CC1 [Example 49, (1-(2-((2-(1-(Cyclopropylsulfonyl)-1H-pyrazol-4-yl)pyrimidin-4-yl)amino)-5-((1-(2,2-difluoroethyl)-1H-pyrazol-4-yl)ethynyl)pyridin-4-yl)-4-methylpiperidin-4-yl)methanol]
					130	362	128	0.9	4.5	CN(C)Cc1ccc(CNc2cc(Nc3ccnc(-c4cnn(S(=O)(=O)C5CC5)c4)n3)ncc2C#Cc2cnn(C)c2)cc1 [Example 50, N^2-(2-(1-(Cyclopropylsulfonyl)-1H-pyrazol-4-yl)pyrimidin-4-yl)-N^4-(4-((dimethylamino)methyl)benzyl)-5-((1-methyl-1H-pyrazol-4-yl)ethynyl)pyridine-2,4-diamine]
					49.1	262	68.6	0.9	3.2	CN(C)Cc1ccc(CNc2cc(Nc3ccnc(-c4cnn(S(=O)(=O)C5CC5)c4)n3)ncc2C#Cc2cnn(CCF)c2)cc1 [Example 51, N^2-(2-(1-(Cyclopropylsulfonyl)-1H-pyrazol-4-yl)pyrimidin-4-yl)-N^4-(4-((dimethylamino)methyl)benzyl)-5-((1-(2-fluoroethyl)-1H-pyrazol-4-yl)ethynyl)pyridine-2,4-diamine]
					65.6	304	76.9	1.4	3.8	CN(C)Cc1ccc(CNc2cc(Nc3ccnc(-c4cnn(S(=O)(=O)C5CC5)c4)n3)ncc2C#Cc2cnn(CC(F)F)c2)cc1 [Example 52, N^2-(2-(1-(Cyclopropylsulfonyl)-1H-pyrazol-4-yl)pyrimidin-4-yl)-5-((1-(2,2-difluoroethyl)-1H-pyrazol-4-yl)ethynyl)-N^4-(4-((dimethylamino)methyl)benzyl)pyridine-2,4-diamine]
> 10000	2.8	1.1	0.5	24.7	4.7	15.1	0.6	0.3	0.1	CN(C)C[C@H]1CC[C@H](COc2cc(Nc3ccnc(-c4cnn(S(=O)(=O)C5CC5)c4)n3)ncc2C#Cc2cnn(C)c2)CC1 [Example 58, 2-(1-(Cyclopropylsulfonyl)-1H-pyrazol-4-yl)-N-(4-(((1r,4r)-4-((dimethylamino)methyl)cyclohexyl)methoxy)-5-((1-methyl-1H-pyrazol-4-yl)ethynyl)pyridin-2-yl)pyrimidin-4-amine]
